Laboratory results taken from ChEMBL document CHEMBL1123809, “Amplification of bleomycin-mediated degradation of DNA” (J Med Chem, 1987).

Tested on: Nucleic Acid
Test: Activity against DNA binding in calf thymus was determined
Format: nucleic-acid assay
Conditions: Bos taurus

Row | SMILES | K [M⁻¹]
1 | CN(C)CCSc1nccc(-c2cccs2)n1 | 18700
2 | CN(C)CCCN1C(=O)c2ccc3c4c(ccc(c24)C1=O)C(=O)N(CCCN(C)C)C3=O | > 1e+06
3 | CN(C)CCNc1nccc(-c2cccs2)n1 | 4400
4 | CN(C)CCSc1nccc(-c2ccc(-c3ccnc(SCCN(C)C)n3)s2)n1 | 1.3e+07
5 | CC[n+]1c(-c2ccccc2)c2cc(N)ccc2c2ccc(N)cc21 | 900000
